According to the NIST ThermoML archive (doi:10.1021/je200093f):
Several values for one entry are separate records, joined by “and”; a condition that tells them apart may be missing. Equal entries are not always repeated.

Tests used:
[1] = 101.33 kPa, Liquid, Vibrating tube method
[2] = xn = mol fraction of the nth substance listed; conditions: 298.15 K, 101 kPa, Liquid, Vibrating tube method
[3] = excess molar enthalpy (molar enthalpy of mixing); xn = mol fraction of the nth substance listed; conditions: 298.15 K, 101 kPa, Liquid, Calvet calorimetry

CN1CCOCC1 [N-methylmorpholine]
Conditions | mass density [kg/m3]
[1], 298.15 K | 914.15

Cc1cccc(C)n1 [2,6-dimethylpyridine] + O
Conditions | excess molar enthalpy, [3] [kcal/mol] | mass density, [2] [kg/m3]
x1 = 0.000772 | -0.00277 | 996.946
x1 = 0.000773 | -0.00281 | 996.945
x1 = 0.001543 | -0.00565 | 996.862
x1 = 0.001544 | -0.00567 | 996.861
x1 = 0.002312 | -0.00855 | 996.792
x1 = 0.002314 | -0.0086 | 996.791
x1 = 0.00308 | -0.0115 | 996.732
x1 = 0.003083 | -0.0115 | 996.734
x1 = 0.003847 | -0.0144 | 996.685
x1 = 0.003851 | -0.0144 | 996.684
x1 = 0.004615 | -0.0173 | 996.644
x1 = 0.004618 | -0.0173 | 996.644

Cc1cccc(C)n1 [2,6-dimethylpyridine] + CO
Conditions | excess molar enthalpy, [3] | mass density, [2]
x1 = 0.001741 | -0.00321 kcal/mol and -0.00319 kcal/mol | –
x1 = 0.003476 | -0.00637 kcal/mol and -0.00641 kcal/mol | 788.131 kg/m3 and 788.126 kg/m3
x1 = 0.005205 | -0.0096 kcal/mol | 788.964 kg/m3
x1 = 0.005206 | -0.00957 kcal/mol | 788.971 kg/m3
x1 = 0.006928 | -0.0128 kcal/mol | 789.788 kg/m3
x1 = 0.006929 | -0.0127 kcal/mol | 789.802 kg/m3
x1 = 0.008643 | -0.0159 kcal/mol | 790.602 kg/m3
x1 = 0.008647 | -0.0159 kcal/mol | 790.625 kg/m3
x1 = 0.01035 | -0.019 kcal/mol | 791.405 kg/m3
x1 = 0.01036 | -0.019 kcal/mol | 791.414 kg/m3

Cc1ccncc1 [4-methylpyridine]
Conditions | mass density [kg/m3]
[1], 298.15 K | 949.87

Cc1cccnc1 [3-methylpyridine]
Conditions | mass density [kg/m3]
[1], 298.15 K | 952.61

CN1CCOCC1 [N-methylmorpholine] + O
Conditions | excess molar enthalpy, [3] [kcal/mol] | mass density, [2] [kg/m3]
x1 = 0.000812 | -0.00565 | 997.058
x1 = 0.000813 | -0.00565 | 997.058
x1 = 0.001623 | -0.0113 | 997.074
x1 = 0.001624 | -0.0113 | 997.074
x1 = 0.002433 | -0.0169 | 997.095
x1 = 0.002434 | -0.0168 | 997.094
x1 = 0.003242 | -0.0224 | 997.121
x1 = 0.004048 | -0.0279 | 997.151
x1 = 0.00405 | -0.0279 | 997.153
x1 = 0.004854 | -0.0335 | 997.187
x1 = 0.004858 | -0.0334 | 997.188

CN1CCCCC1 [N-methylpiperidine] + O
Conditions | excess molar enthalpy, [3] [kcal/mol] | mass density, [2] [kg/m3]
x1 = 0.000735 | -0.00509 | 996.66
x1 = 0.000736 | -0.00513 | 996.651
x1 = 0.000737 | -0.00512 | 996.658
x1 = 0.00147 | -0.0102 | 996.261
x1 = 0.001471 | -0.0103 | 996.253
x1 = 0.001473 | -0.0102 | 996.26
x1 = 0.002202 | -0.0154 | 995.866
x1 = 0.002206 | -0.0155 | 995.858
x1 = 0.002208 | -0.0154 | 995.862
x1 = 0.002934 | -0.0206 | 995.483
x1 = 0.002939 | -0.0206 | 995.482
x1 = 0.002942 | -0.0206 | 995.47
x1 = 0.003666 | -0.0258 | 995.109
x1 = 0.003671 | -0.0258 | 995.097
x1 = 0.003675 | -0.0259 | 995.081
x1 = 0.004398 | -0.0308 | 994.752
x1 = 0.004404 | -0.0309 | 994.733
x1 = 0.004409 | -0.031 | 994.716

CN1CCOCC1 [N-methylmorpholine] + CO
Conditions | excess molar enthalpy, [3] | mass density, [2]
x1 = 0.001834 | – | 787.377 kg/m3 and 787.359 kg/m3
x1 = 0.003662 | -0.00519 kcal/mol | 788.239 kg/m3
x1 = 0.003663 | -0.0052 kcal/mol | 788.267 kg/m3
x1 = 0.005484 | -0.00777 kcal/mol and -0.00772 kcal/mol | 789.159 kg/m3 and 789.119 kg/m3
x1 = 0.007298 | -0.0103 kcal/mol | 790.004 kg/m3
x1 = 0.007299 | -0.0103 kcal/mol | 790.044 kg/m3
x1 = 0.009104 | -0.0128 kcal/mol | 790.862 kg/m3
x1 = 0.009108 | -0.0128 kcal/mol | 790.908 kg/m3
x1 = 0.0109 | -0.0152 kcal/mol | 791.711 kg/m3
x1 = 0.01091 | -0.0152 kcal/mol | 791.753 kg/m3

Cn1ccnc1 [1-methylimidazole] + CO
Conditions | excess molar enthalpy, x1 = 0.005084 | excess molar enthalpy, x1 = 0.007607 [kcal/mol] | excess molar enthalpy, x1 = 0.01012 [kcal/mol] | excess molar enthalpy, x1 = 0.01261 [kcal/mol] | excess molar enthalpy, x1 = 0.0151 [kcal/mol] | mass density, x1 = 0.005084 | mass density, x1 = 0.007607 | mass density, x1 = 0.01012 | mass density, x1 = 0.01261 | mass density, x1 = 0.0151
[2] | – | – | – | – | – | 789.231 kg/m3 and 789.234 kg/m3 | 790.606 kg/m3 and 790.615 kg/m3 | 791.972 kg/m3 and 791.975 kg/m3 | 793.304 kg/m3 and 793.323 kg/m3 | 794.617 kg/m3 and 794.633 kg/m3
[3] | -0.00838 kcal/mol and -0.00841 kcal/mol | -0.0126 | -0.0167 | -0.0208 | -0.0249 | – | – | – | – | –

Cc1cccnc1 [3-methylpyridine] + O
Conditions | excess molar enthalpy, [3] | mass density, [2]
x1 = 0.000922 | -0.00213 kcal/mol and -0.00212 kcal/mol | 997.03 kg/m3 and 997.031 kg/m3
x1 = 0.001842 | -0.00422 kcal/mol and -0.0042 kcal/mol | 997.017 kg/m3 and 997.018 kg/m3
x1 = 0.00276 | -0.00626 kcal/mol | 997.008 kg/m3
x1 = 0.002761 | -0.00629 kcal/mol | 997.007 kg/m3
x1 = 0.003677 | -0.00828 kcal/mol | 996.999 kg/m3
x1 = 0.003678 | -0.00833 kcal/mol | 996.998 kg/m3
x1 = 0.004592 | -0.0103 kcal/mol | 996.991 kg/m3
x1 = 0.004594 | -0.0103 kcal/mol | 996.989 kg/m3
x1 = 0.005507 | -0.0122 kcal/mol | 996.982 kg/m3
x1 = 0.005509 | -0.0122 kcal/mol | 996.98 kg/m3

Cc1cccc(C)n1 [2,6-dimethylpyridine]
Conditions | mass density [kg/m3]
[1], 298.15 K | 918.19

CN1CCCCC1 [N-methylpiperidine]
[1]
Conditions | mass density [kg/m3]
288.15 K | 821.53
293.15 K | 817.22
298.15 K | 812.62
303.15 K | 808.16
308.15 K | 803.61

Cn1ccnc1 [1-methylimidazole] + O
Conditions | excess molar enthalpy, [3] [kcal/mol] | mass density, [2] [kg/m3]
x1 = 0.001133 | -0.00255 | 997.279
x1 = 0.001134 | -0.00254 | 997.281
x1 = 0.002264 | -0.00507 | 997.513
x1 = 0.002265 | -0.00505 | 997.514
x1 = 0.003392 | -0.00759 | 997.75
x1 = 0.003394 | -0.00757 | 997.75
x1 = 0.004518 | -0.0101 | 997.985
x1 = 0.00452 | -0.01 | 997.986
x1 = 0.005642 | -0.0126 | 998.222
x1 = 0.005644 | -0.0125 | 998.246
x1 = 0.006765 | -0.015 | 998.459
x1 = 0.006766 | -0.015 | 998.483

Cc1ccncc1 [4-methylpyridine] + O
Conditions | excess molar enthalpy, [3] | mass density, [2]
x1 = 0.000919 | -0.00217 kcal/mol and -0.00216 kcal/mol | 997.023 kg/m3 and 997.024 kg/m3
x1 = 0.001837 | -0.00432 kcal/mol and -0.00429 kcal/mol | 997.005 kg/m3
x1 = 0.002753 | -0.0064 kcal/mol | 996.988 kg/m3
x1 = 0.002754 | -0.0064 kcal/mol | 996.988 kg/m3
x1 = 0.003667 | -0.00843 kcal/mol | 996.972 kg/m3
x1 = 0.003668 | -0.00844 kcal/mol | 996.971 kg/m3
x1 = 0.00458 | -0.0105 kcal/mol | 996.955 kg/m3 and 996.956 kg/m3
x1 = 0.005492 | -0.0124 kcal/mol | 996.939 kg/m3

CN1CCCCC1 [N-methylpiperidine] + CO
Conditions | excess molar enthalpy, [3] | mass density, [2] [kg/m3]
x1 = 0.001664 | -0.00412 kcal/mol and -0.00411 kcal/mol | 786.815
x1 = 0.003322 | -0.00819 kcal/mol | 787.153
x1 = 0.003323 | -0.00814 kcal/mol | 787.15
x1 = 0.004975 | -0.0122 kcal/mol | 787.488
x1 = 0.004976 | -0.0122 kcal/mol | 787.486
x1 = 0.006622 | -0.0162 kcal/mol | 787.816
x1 = 0.006624 | -0.0161 kcal/mol | 787.816
x1 = 0.008264 | -0.0201 kcal/mol | 788.141
x1 = 0.008266 | -0.0201 kcal/mol | 788.139
x1 = 0.0099 | -0.024 kcal/mol | 788.458
x1 = 0.009904 | -0.0239 kcal/mol | 788.454

Cn1ccnc1 [1-methylimidazole]
Conditions | mass density [kg/m3]
[1], 298.15 K | 1031.14

Cc1ccncc1 [4-methylpyridine] + CO
Conditions | excess molar enthalpy, [3] | mass density, [2]
x1 = 0.004138 | -0.00498 kcal/mol | 788.325 kg/m3
x1 = 0.004139 | -0.00496 kcal/mol | 788.319 kg/m3
x1 = 0.006195 | -0.00746 kcal/mol and -0.00747 kcal/mol | 789.246 kg/m3 and 789.247 kg/m3
x1 = 0.008243 | -0.00988 kcal/mol | 790.15 kg/m3
x1 = 0.008244 | -0.00991 kcal/mol | 790.152 kg/m3
x1 = 0.01028 | -0.0123 kcal/mol | 791.066 kg/m3 and 791.039 kg/m3
x1 = 0.01231 | -0.0146 kcal/mol | 791.923 kg/m3
x1 = 0.01232 | -0.0146 kcal/mol | 791.924 kg/m3

Cc1cccnc1 [3-methylpyridine] + CO
Conditions | excess molar enthalpy, [3] [kcal/mol] | mass density, [2]
x1 = 0.002075 | – | 787.397 kg/m3
x1 = 0.004143 | -0.00457 | 788.32 kg/m3
x1 = 0.004144 | -0.00455 | 788.293 kg/m3
x1 = 0.006201 | -0.00684 | 789.24 kg/m3
x1 = 0.006203 | -0.00681 | 789.213 kg/m3
x1 = 0.008251 | -0.00912 | 790.158 kg/m3
x1 = 0.008253 | -0.00905 | 790.117 kg/m3
x1 = 0.01029 | -0.0113 | 791.057 kg/m3 and 791.007 kg/m3
x1 = 0.01232 | -0.0135 | 791.892 kg/m3
